Data taken from patent US20020026053A1, “Novel 3-(substituted) -2- indolinones compounds and use thereof as inhibitors of protein kinase activity” (priority 1997, published 2002).

Molecular target: T1, Met receptor (EGFR/Met chimeric cells, EMR) (Homo sapiens, UniProt P08581)
T1 construct: expressed in transfected cells; the other entry of the earlier key: EGFR (P00533, Epidermal growth factor receptor)
Assay: Met Autophosphorylation Assay
Type: biochemical
In short: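 Met phosphorylation was measured by capture ELISA. Lysates (90 μg/100 μl, HNTG plus 1 mM PMSF) from transiently transfected EGFR/Met chimera (EMR) cells were bound for 60 min at room temperature to wells holding rabbit anti-Met (C-28) on goat anti-rabbit coat. Phosphotyrosine was the read-out.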

T1 sequence (P08581 with tags, fused parts or gaps): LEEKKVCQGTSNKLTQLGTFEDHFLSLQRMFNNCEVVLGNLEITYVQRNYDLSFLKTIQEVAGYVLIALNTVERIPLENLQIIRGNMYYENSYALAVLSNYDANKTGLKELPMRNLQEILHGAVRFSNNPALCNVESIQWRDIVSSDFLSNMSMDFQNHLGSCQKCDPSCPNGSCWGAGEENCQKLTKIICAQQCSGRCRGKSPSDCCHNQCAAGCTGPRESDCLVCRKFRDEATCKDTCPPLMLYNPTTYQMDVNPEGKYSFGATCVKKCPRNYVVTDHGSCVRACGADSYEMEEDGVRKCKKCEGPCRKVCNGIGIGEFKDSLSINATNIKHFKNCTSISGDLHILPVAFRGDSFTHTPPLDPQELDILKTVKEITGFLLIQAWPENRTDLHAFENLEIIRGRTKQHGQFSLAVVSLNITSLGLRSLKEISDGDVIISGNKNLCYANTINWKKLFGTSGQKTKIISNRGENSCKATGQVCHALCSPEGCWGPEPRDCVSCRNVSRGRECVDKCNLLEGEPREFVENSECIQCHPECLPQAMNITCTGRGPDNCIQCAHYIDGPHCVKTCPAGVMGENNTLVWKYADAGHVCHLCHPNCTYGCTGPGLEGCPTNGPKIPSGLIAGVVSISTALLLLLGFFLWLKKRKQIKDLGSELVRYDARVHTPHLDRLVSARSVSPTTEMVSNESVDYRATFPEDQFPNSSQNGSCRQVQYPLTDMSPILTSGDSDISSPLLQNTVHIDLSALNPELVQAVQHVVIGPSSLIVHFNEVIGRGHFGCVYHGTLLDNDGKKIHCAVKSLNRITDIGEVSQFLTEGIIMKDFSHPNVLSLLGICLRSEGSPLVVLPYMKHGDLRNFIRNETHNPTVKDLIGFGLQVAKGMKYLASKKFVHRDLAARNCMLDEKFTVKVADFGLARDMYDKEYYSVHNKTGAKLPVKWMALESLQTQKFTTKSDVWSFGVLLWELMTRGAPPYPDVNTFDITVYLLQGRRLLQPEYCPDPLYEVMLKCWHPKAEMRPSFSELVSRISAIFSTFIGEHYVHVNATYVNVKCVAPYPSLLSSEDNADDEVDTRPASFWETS

Structure (SMILES) | Met Kinase % Inhibition (P.130)
CCOc1ccccc1C=C1C(=O)Nc2c(Br)cc(Br)c(C)c21 [10717/H02] | 44.5%
Cc1c(Br)cc(Br)c2c1C(=Cc1cccs1)C(=O)N2 [10717/H03] | 18.3%
Cc1c(Br)cc(Br)c2c1C(=Cc1cccn1C)C(=O)N2 [10717/H04] | 14.0%
COc1ccc(C=C2C(=O)Nc3c(Br)cc(Br)c(C)c32)cc1OC [10720/H04] | 21.3%
Cc1c(Br)cc(Br)c2c1C(=Cc1ccccc1O)C(=O)N2 [10720/H05] | 51.0%
Cc1c(Br)cc(Br)c2c1C(=Cc1ccccc1)C(=O)N2 [10720/H06] | 24.4%
CSc1ccc(C=C2C(=O)Nc3c(Br)cc(Br)c(C)c32)s1 [10720/H07] | 10.8%
Cc1cc(O)cc(O)c1C=C1C(=O)Nc2c(Br)cc(Br)c(C)c21 [10720/H08] | 40.0%
CCOc1cc(C=C2C(=O)Nc3c(Br)cc(Br)c(C)c32)ccc1O [10720/H09] | 49.0%
COc1ccc(O)c(C=C2C(=O)Nc3c(Br)cc(Br)c(C)c32)c1 [10720/H10] | 48.2%
Cc1c(Br)cc(Br)c2c1C(=Cc1ncc[nH]1)C(=O)N2 [10720/H11] | 28.0%
Cc1c(Br)cc(Br)c2c1C(=Cc1nc3ccccc3n1C)C(=O)N2 [10721/H02] | 39.7%
Cc1c(Br)cc(Br)c2c1C(=Cc1nn(C)cc1Cl)C(=O)N2 [10721/H03] | 21.3%
Cc1cc(C=C2C(=O)Nc3c(Br)cc(Br)c(C)c32)sc1C [10721/H04] | 72.9%
Cc1c(Br)cc(Br)c2c1C(=Cc1cc3c([nH]1)CCCC3)C(=O)N2 [10721/H05] | 33.6%
Cc1c(Br)cc(Br)c2c1C(=Cc1cc([N+](=O)[O-])cc(CCl)c1O)C(=O)N2 [10721/H06] | 90.3%

Structure (SMILES) | Met Kinase % Inhibition (P.130)
Cc1c(Br)cc(Br)c2c1C(=Cc1ccc(Cl)s1)C(=O)N2 [10721/H07] | 10.4%
Cc1cc(C)c(C=C2C(=O)Nc3c(Br)cc(Br)c(C)c32)[nH]1 [10721/H08] | 42.5%
Cc1c(Br)cc(Br)c2c1C(=Cc1ccc(O)c(C(C)(C)C)c1)C(=O)N2 [10721/H09] | 36.7%
Cc1c(Br)cc(Br)c2c1C(=Cc1cc(Br)c(O)c(C(C)(C)C)c1)C(=O)N2 [10721/H10] | 46.9%
Cc1c(Br)cc(Br)c2c1C(=Cc1cc(C(C)(C)C)c(O)c(C(C)(C)C)c1)C(=O)N2 [10721/H11] | 46.0%
Cc1c(Br)cc(Br)c2c1C(=Cc1cc([N+](=O)[O-])c(O)c(C(C)(C)C)c1)C(=O)N2 [10722/H02] | 37.8%
Cc1c(Br)cc(Br)c2c1C(=Cc1c(O)cc(O)cc1O)C(=O)N2 [10722/H03] | 100.5%
Cc1c(Br)cc(Br)c2c1C(=Cc1ccc([N+](=O)[O-])s1)C(=O)N2 [10722/H04] | 62.2%
Cc1c(Br)cc(Br)c2c1C(=Cc1ccc(C(=O)O)cc1)C(=O)N2 [10722/H05] | 83.2%
Cc1c(Br)cc(Br)c2c1C(=Cc1ccc(F)cc1F)C(=O)N2 [10722/H06] | 70.3%
Cc1cc(C=C2C(=O)Nc3c(Br)cc(Br)c(C)c32)cc(C)c1O [10722/H07] | 51.0%
Cc1c(Br)cc(Br)c2c1C(=Cc1cc(Cl)c(O)c(C(C)(C)C)c1)C(=O)N2 [10722/H08] | 72.6%
Cc1c(Br)cc(Br)c2c1C(=Cc1csc([N+](=O)[O-])c1)C(=O)N2 [10722/H09] | 67.6%
CCCCN(CCCC)c1ccc(C=C2C(=O)Nc3c(Br)cc(Br)c(C)c32)cc1 [10722/H10] | 30.3%
Cc1c(Br)cc(Br)c2c1C(=Cc1ccc(C(F)(F)F)cc1)C(=O)N2 [10722/H11] | 66.1%
Cc1c(Br)cc(Br)c2c1C(=Cc1ccc(O)c(O)c1O)C(=O)N2 [10723/H02] | 100.8%
